Experimental data: patent publication EP3838286B1, “ANTIMICROBIAL PEPTIDE FROM POLISTES GALLICUS VENOM AND ITS ANALOGS” (Latoxan, priority 2019, dated 2021)
Values after ≈ are worked out from the molar mass of the structure shown. Where two headings read alike, the source gives them in different places. Square brackets hold non-standard residues; d marks the D form. Peptide text beside a SMILES is read from it.

Columns and labels:
[1] = Cytotoxicity assay (resazurin); assay type: cell-based; conditions: human
Experimental: Normal human cells used were BEAS-2B (ATCC CRL-9609), IMR-90 (ATCC CCL-186) and Human Umbilical Vein Endothelial Cells (HUVEC) (from Sigma-Aldrich) corresponding respectively to human normal lung epithelial, normal lung fibroblast cells and human normal endothelial cells. All cells except HUVEC cells were cultured in Dulbecco's modified essential medium (DMEM) supplemented with 10% fetal calf serum (FCS), 1% L-glutamine and 1% antibiotics (all from Invitrogen). HUVEC cells were cultured in specific endothelial media (from Sigma Aldrich). Cells were seeded onto […] maintained in a 5% CO2 incubator at 37 °C. Cells grown on 25 cm^2 flasks were detached using trypsin-EDTA solution (from Thermofisher), counted using Mallassez counting chamber and seeded into 96-well cell culture plates (Greiner bio-one) at approximately 10,000 cells per well. The cells were left to grow for 48-72 h at 37 °C in a 5% CO2 incubator until they reached confluence. Plates were then aspirated and increasing concentrations of peptides diluted in culture media were added to the cells for 48 h at 37 °C in a 5% CO2 incubator. At the end of the incubation, wells were emptied and cell viability was evaluated using Resazurin based in vitro toxicity assay kit (from Sigma-Aldrich) following manufacturer's instructions. Briefly, Resazurin stock solution was diluted 1:10 in sterile PBS containing calcium and magnesium (PBS, pH 7.4) and empty wells were filled with 100 µL of the diluted solution. After 4 h incubation at 37 °C, fluorescence intensity was measured using microplate reader (Synergy Mx, Biotek) with an excitation wavelength of 530 nm and an emission wavelength of 590 nm. The fluorescence values were normalized by the controls (buffer treated cells) and expressed as percent viability. The IC50 values of peptides on cell viability (i.e. the concentration of derivative causing a reduction of 50% of cell viability) were determined using GraphPad® Prism 7 software. t-Test and two way ANOVA analyses were used to address the significant differences between mean values with significance set at p < 0.05.

Pseudomonas aeruginosa = test: Stability of the peptides to proteases and human serum (MIC of digested peptides); assay type: in vitro ADME; conditions: for MIC (µM) Serum4h: after 4 h at 37°C in human serum; for MIC (µM) Serum4h / MIC (µM) Chymotrypsin / MIC (µM) Pepsin / MIC (µM) Trypsin / MIC (µM) Serum24h / MIC (µM) Control: against Pseudomonas aeruginosa; for MIC (µM) Chymotrypsin: after 4 h at 37°C with chymotrypsin; for MIC (µM) Chymotrypsin / MIC (µM) Trypsin: pH 7; for MIC (µM) Pepsin: after 4 h at 37°C with pepsin, pH2; for MIC (µM) Trypsin: after 4 h at 37°C with trypsin; for MIC (µM) Serum24h: after 24 h at 37°C in human serum; for stability to proteases and human serum: pepsin, trypsin, chymotrypsin; for MIC (µM) Control: peptide incubated in PBS, not treated with proteases
Experimental: In order to evaluate the stability of the peptides to condition they will face in vivo, their resistance to proteases and human serum was evaluated (Oyama et al., 2017 Biofilms Microbiomes, Dec 1;3:33). Briefly, one volume of peptides (at 1 mM) was diluted in one volume of proteases (Pepsin, Trypsin, Chymotrypsin, Papain all from Sigma Aldrich and diluted at 2 mg/ml in HCl 10 mM pH2 for Pepsin, PBS pH 7 for Trypsin and Chymotrysin and PBS pH 6 for Papain) or human serum (Sigma Aldrich H4522). Peptides incubated in the same conditions in PBS were used as controls. After 4 h (for proteases) and 4 or 24 h (for human serum) of incubation at 37°C, PMSF was added to the reaction mixture at a final concentration of 100 µM to stop the digestion. MIC of the digested peptides were then determined as explained above.

MDA-MB-231 = test: Antitumor / antiproliferative activity (resazurin); assay type: cell-based, human; conditions: breast cancer cells; 5,000 cells/well; 48 h; read-out: IC50 antiproliferative effect MDA-MB-231
Experimental: (§1) Human cancer cell lines (Mia PaCa-2 (CRL-1420), PC-3 (CRL-1435), MDA-MB-231 (HTB-26)) and normal lung fibrobasts (BEAS-2B (ATCC CRL-9609) and IMR-90 (ATCC CCL-186)) were obtained from American Type Culture Collection (ATCC). HUVEC cells were obtained from Sigma Aldrich and were grown in defined all-in-one ready to use endothelial cell growth medium (Sigma Aldrich). Other cells were cultured in Dulbecco's modified Eagle's medium (DMEM, Gibco Life Technologies) supplemented with 10% heat-inactivated fetal calf serum (FCS, Lonza) at 37 °C in an incubator containing 5% CO2. Cells were sub-cultured in new media every 3-4 days. Antiproliferative / antitumor effects of the peptides were measured as previously described (Borie et al., Eur J Med Chem. 2018;148:306-313). Briefly, cells were detached from growing flask using trypsin, cells were counted and seeded in 96 well-plates in the growth media at an initial cell density of 5000 cells/well. Cells were left for 4 h to attach to the wells. Cells were then treated with increasing concentrations of peptides diluted in culture media. After 48 h incubation at 37 °C in a 5% CO2 incubator, wells were emptied and cell number was evaluated using Resazurin based in vitro toxicity assay kit (from Sigma-Aldrich) following manufacturer's instructions. Briefly, Resazurin stock solution was diluted 1:10 in sterile PBS containing calcium and magnesium (PBS, pH 7.4) and empty wells were filled with 100 µL of the diluted solution. After 4 h incubation at 37 °C, fluorescence intensity was measured using microplate reader (Synergy Mx, Biotek) with an excitation wavelength of 530 nm and an emission wavelength of 590 nm. The fluorescence values were normalized by the controls (buffer treated cells) and expressed as per-cent viability. The IC50 values of peptides on cell division / proliferation (i.e. the concentration of derivative causing a reduction of 50% of cell division) were determined using GraphPad ® Prism 7 software. t-Test and two way ANOVA analyses were used to address the significant differences between mean values with significance set at p < 0.05.

MiaPaCa-2 = test: Antitumor / antiproliferative activity (resazurin); assay type: cell-based, human; conditions: pancreas cancer cells; 5,000 cells/well; 48 h; read-out: IC50 antiproliferative effect MiaPaCa-2
Experimental: as §1

PC-3 = test: Antitumor / antiproliferative activity (resazurin); assay type: cell-based, human; conditions: prostate cancer cells; 5,000 cells/well; 48 h; read-out: IC50 antiproliferative effect PC-3
Experimental: as §1

[2] = system: B. subtilis (Nisin-resistant)
M. smegmatis = conditions: 72 h
[3] = BEAS-2B normal lung epithelial cells, normal lung epithelium, read-out: Cytotoxicity IC50 (µM) BEAS
[4] = HUVEC (human umbilical vein endothelial cells), normal endothelium, read-out: Cytotoxicity IC50 (µM) HUVEC
[5] = IMR-90 normal lung fibroblast cells, read-out: Cytotoxicity IC50 (µM) IMR90

CC[C@@H](C)[C@@H](N)C(=O)N[C@H](CC(C)C)C(=O)N[C@H](CCCCN)C(=O)N[C@H](C)C(=O)N[C@@H](C(=O)N[C@H](CCCCN)C(=O)N[C@H](CCCCN)C(=O)N[C@H](CC(C)C)C(=O)N[C@H](CC(C)C)C(=O)N[C@H](CCCCN)C(N)=O)[C@H](C)CC [(i1k10*) enantio, ilkaikkllk] (H-[dI][dL][dK][dA][dI][dK][dK][dL][dL][dK]-NH2)
CC50 at 48 h [1, 3]: 726 µM
CC50 at 48 h [1, 4]: 683 µM
CC50 at 48 h [1, 5]: 365 µM
MIC (µM) Serum4h (Pseudomonas aeruginosa): 1.5 µM
MIC (µM) Chymotrypsin (Pseudomonas aeruginosa): 1.5 µM
MIC (µM) Pepsin (Pseudomonas aeruginosa): 1.5 µM
MIC (µM) Trypsin (Pseudomonas aeruginosa): 1.5 µM
MIC (µM) Serum24h (Pseudomonas aeruginosa): 0.75 µM
stability to proteases and human serum (Pseudomonas aeruginosa): not affected
MIC (µM) Control (Pseudomonas aeruginosa): 1.5 µM
IC50 (MDA-MB-231): 61.7 µM
IC50 (MiaPaCa-2): 13.4 µM
IC50 (PC-3): 39.3 µM
MBC (µM) P. aeruginosa (P. aeruginosa): 3.12 µM (≈ 3.64 µg/mL)
MIC (µM) P. aeruginosa (P. aeruginosa): 3.125 µM (≈ 3.65 µg/mL)
MIC PA (P. aeruginosa): 3.125 µM (≈ 3.65 µg/mL)
MBC (µM) L. lactis (L. lactis): 3.12 µM (≈ 3.64 µg/mL)
MIC (µM) L. lactis (L. lactis): 1.5 µM (≈ 1.75 µg/mL)
MBC (µM) B. subtilis (Nisin-resistant) [2]: 12.5 µM (≈ 14.6 µg/mL)
MIC (µM) B. subtilis (Nisin-resistant) [2]: 12.5 µM (≈ 14.6 µg/mL)
MBC (µM) A. gandavensis (A. gandavensis): 1.5 µM (≈ 1.75 µg/mL)
MIC (µM) A. gandavensis (A. gandavensis): 1.5 µM (≈ 1.75 µg/mL)
MBC (µM) E. coli EHEC K88 (E. coli EHEC K88): 50 µM (≈ 58.3 µg/mL)
MIC (µM) E. coli EHEC K88 (E. coli EHEC K88): 50 µM (≈ 58.3 µg/mL)
MBC (µM) P. aeruginosa FQR (P. aeruginosa FQR): 100 µM (≈ 117 µg/mL)
MIC (µM) P. aeruginosa FQR (P. aeruginosa FQR): 12.5 to 25 µM
MBC (µM) P. aeruginosa 01 (P. aeruginosa 01): 50 µM (≈ 58.3 µg/mL)
MIC (µM) P. aeruginosa 01 (P. aeruginosa 01): 12.5 µM (≈ 14.6 µg/mL)
MBC (µM) S. flexneri (S. flexneri): 12.5 µM (≈ 14.6 µg/mL)
MIC (µM) S. flexneri (S. flexneri): 12.5 µM (≈ 14.6 µg/mL)
MBC (µM) C. farmeri (C. farmeri): 50 µM (≈ 58.3 µg/mL)
MIC (µM) C. farmeri (C. farmeri): 12.5 µM (≈ 14.6 µg/mL)
MBC (µM) C. rodentium (C. rodentium): 50 µM (≈ 58.3 µg/mL)
MIC (µM) C. rodentium (C. rodentium): 50 µM (≈ 58.3 µg/mL)
MBC (µM) S. enterica (S. enterica): 25 µM (≈ 29.2 µg/mL)
MIC (µM) S. enterica (S. enterica): 50 µM (≈ 58.3 µg/mL)
MBC (µM) V. alginolyticus (V. alginolyticus): 1.5 µM (≈ 1.75 µg/mL)
MIC (µM) V. alginolyticus (V. alginolyticus): 0.78 to 1.56 µM
MBC (µM) H. pylori (H. pylori): 50 µM (≈ 58.3 µg/mL)
MIC (µM) H. pylori (H. pylori): 50 µM (≈ 58.3 µg/mL)
MIC (µM) M. smegmatis (M. smegmatis): 6.25 µM (≈ 7.29 µg/mL)

CC[C@@H](C)[C@@H](N)C(=O)N[C@H](CC(C)C)C(=O)N[C@H](CCCCN)C(=O)N[C@H](C)C(=O)N[C@@H](C(=O)N[C@H](CCCCN)C(=O)N[C@H](CCCCN)C(=O)N[C@H](CC(C)C)C(=O)N[C@H](CC(C)C)C(=O)N[C@H](CCCCN)C(=O)N[C@H](CC(N)=O)C(N)=O)[C@H](C)CC [LTX-D (gallicune-1), ilkaikkllkn] (H-[dI][dL][dK][dA][dI][dK][dK][dL][dL][dK][dN]-NH2)
CC50 at 48 h [1, 3]: 843 µM
CC50 at 48 h [1, 4]: 869 µM
CC50 at 48 h [1, 5]: 653 µM
MIC (µM) Serum4h (Pseudomonas aeruginosa): 25 µM
MIC (µM) Chymotrypsin (Pseudomonas aeruginosa): 25 µM
MIC (µM) Pepsin (Pseudomonas aeruginosa): 25 µM
MIC (µM) Trypsin (Pseudomonas aeruginosa): 25 µM
MIC (µM) Serum24h (Pseudomonas aeruginosa): 12.5 µM
stability to proteases and human serum (Pseudomonas aeruginosa): not affected
MIC (µM) Control (Pseudomonas aeruginosa): 25 µM
IC50 (MDA-MB-231): 56.2 µM
IC50 (MiaPaCa-2): 6.51 µM
IC50 (PC-3): 33.7 µM
MBC (µM) P. aeruginosa (P. aeruginosa): 1.5 µM (≈ 1.92 µg/mL)
MIC (µM) P. aeruginosa (P. aeruginosa): 1.5 µM (≈ 1.92 µg/mL)
MIC PA (P. aeruginosa): 1.5 µM (≈ 1.92 µg/mL)
MIC (µM) E. coli (E. coli): 6.25 µM (≈ 8 µg/mL)
MBC (µM) L. lactis (L. lactis): 1.5 µM (≈ 1.92 µg/mL)
MIC (µM) L. lactis (L. lactis): 1.5 µM (≈ 1.92 µg/mL)
MBC (µM) B. subtilis (Nisin-resistant) [2]: 6.25 µM (≈ 8 µg/mL)
MIC (µM) B. subtilis (Nisin-resistant) [2]: 6.25 µM (≈ 8 µg/mL)
MBC (µM) A. gandavensis (A. gandavensis): 1.5 µM (≈ 1.92 µg/mL)
MIC (µM) A. gandavensis (A. gandavensis): 1.5 µM (≈ 1.92 µg/mL)
MBC (µM) E. coli EHEC K88 (E. coli EHEC K88): 50 µM (≈ 64 µg/mL)
MIC (µM) E. coli EHEC K88 (E. coli EHEC K88): 50 µM (≈ 64 µg/mL)
MBC (µM) P. aeruginosa FQR (P. aeruginosa FQR): 12.5 µM (≈ 16 µg/mL)
MIC (µM) P. aeruginosa FQR (P. aeruginosa FQR): 6.25 to 12.5 µM
MBC (µM) P. aeruginosa 01 (P. aeruginosa 01): 25 µM (≈ 32 µg/mL)
MIC (µM) P. aeruginosa 01 (P. aeruginosa 01): 6.25 µM (≈ 8 µg/mL)
MBC (µM) S. flexneri (S. flexneri): 12.5 µM (≈ 16 µg/mL)
MIC (µM) S. flexneri (S. flexneri): 12.5 µM (≈ 16 µg/mL)
MBC (µM) C. farmeri (C. farmeri): 6.25 µM (≈ 8 µg/mL)
MIC (µM) C. farmeri (C. farmeri): 6.25 µM (≈ 8 µg/mL)
MBC (µM) C. rodentium (C. rodentium): 25 µM (≈ 32 µg/mL)
MIC (µM) C. rodentium (C. rodentium): 12.5 µM (≈ 16 µg/mL)
MBC (µM) S. enterica (S. enterica): 25 µM (≈ 32 µg/mL)
MIC (µM) S. enterica (S. enterica): 25 µM (≈ 32 µg/mL)
MBC (µM) V. alginolyticus (V. alginolyticus): 0.78 µM (≈ 0.999 µg/mL)
MIC (µM) V. alginolyticus (V. alginolyticus): 0.78 µM (≈ 0.999 µg/mL)
MBC (µM) H. pylori (H. pylori): 50 µM (≈ 64 µg/mL)
MIC (µM) H. pylori (H. pylori): 50 µM (≈ 64 µg/mL)
MIC (µM) M. smegmatis (M. smegmatis): 25 µM (≈ 32 µg/mL)
